What was measured:
Type in all cases: cell-based
[1] = test system: Klebsiella pneumoniae UC 57 (KP); assay: Dip disk (disk-diffusion) assay, disks loaded with 0.05 ml; conditions: 0.05 ml per disk; for zone of inhibition at 1 µg/mL / zone of inhibition at 0.1 µg/mL: Klebsiella pneumoniae, UC57, read-out: Growth Inhibition zone, KP; for zone of inhibition at 1 µg/mL: 1.0 mcg/ml; for Growth Inhibition zone, KP / zone of inhibition at 0.1 µg/mL: 0.1 mcg/ml
Protocol: The effectiveness of the subject compounds on bacteria were obtained by performing a dip disk assay. The antibacterial activity of the compounds was determined by the disk-diffusion method. […] They were then applied to the surface of microorganism-seeded agar assay trays, which contained the bacterial strain Pseudomonas aeruginosa UC 95 (PA), Escherichia coli UC 51 (EC), Klebsiella pneumoniae UC 57 (KP), or Staphylococcus aureus UC 80 (SA). The assay trays were incubated overnight under aerobic condition to allow for the growth of the organisms. Zones of growth inhibition due to the action of the antibiotic were then measured to the nearest millimeter. […]

[2] = test system: Pseudomonas aeruginosa UC 95 (PA); assay: as above; conditions: 0.05 ml per disk; for zone of inhibition at 1 µg/mL / zone of inhibition at 0.1 µg/mL: Pseudomonas aeruginosa, UC95, read-out: Growth Inhibition zone, PA; for zone of inhibition at 1 µg/mL: 1.0 mcg/ml; for Growth Inhibition zone, PA / zone of inhibition at 0.1 µg/mL: 0.1 mcg/ml
Protocol: (§1) The effectiveness of the subject compounds on bacteria were obtained by performing a dip disk assay. The antibacterial activity of the compounds was determined by the disk-diffusion method. Paper disks (12.7 mm) were loaded with 0.05 ml of drug solution prepared at a concentration of 0.1 mcg/ml; the disks were allowed to air dry. They were then applied to the surface of microorganism-seeded agar assay trays, which contained the bacterial strain Pseudomonas aeruginosa UC 95 (PA), Escherichia coli UC 51 (EC), Klebsiella pneumoniae UC 57 (KP), or Staphylococcus aureus UC 80 (SA). The assay trays were incubated overnight under aerobic condition to allow for the growth of the organisms. Zones of growth inhibition due to the action of the antibiotic were then measured to the nearest millimeter.
(§2) The effectiveness of additional compounds 5-9, (5-7 are Formula IAa compounds and 8 and 9 are Formula IAb compounds) on bacteria were obtained by performing a dip disk assay as described above. The antibacterial activity of the compounds was determined by the disk-diffusion method where the disks were loaded with 0.05 ml of drug solution prepared at a concentration of 1.0 mcg/ml; the disks were allowed to air dry.

[3] = test system: Staphylococcus aureus UC 80 (SA); assay: as above; conditions: 0.05 ml per disk; for zone of inhibition at 1 µg/mL / zone of inhibition at 0.1 µg/mL: Staphylococcus aureus, UC80, read-out: Growth Inhibition zone, SA; for zone of inhibition at 1 µg/mL: 1.0 mcg/ml; for Growth Inhibition Zone, SA / zone of inhibition at 0.1 µg/mL: 0.1 mcg/ml
Protocol: as §1, §2

[4] = test system: Escherichia coli UC 51 (EC); assay: as above; conditions: 0.05 ml per disk; for zone of inhibition at 1 µg/mL / zone of inhibition at 0.1 µg/mL: Escherichia coli, UC51, read-out: Growth Inhibition zone, EC; for zone of inhibition at 1 µg/mL: 1.0 mcg/ml; for Growth Inhibition Zone, EC / zone of inhibition at 0.1 µg/mL: 0.1 mcg/ml
Protocol: as §1, §2

[5] = test system: Escherichia coli UC 51 (EC); assay: Dipped disk (disk-diffusion) assay, disks loaded with 0.10 ml; conditions: 0.10 ml per disk
Protocol: (§3) The effectiveness of the subject compounds on some bacteria were obtained by performing a dipped disk assay. The antibacterial activity of the compounds is determined by the disk-diffusion method. […] They were then applied to the surface of microorganism-seeded agar assay trays, which contained the bacterial strain Pseudomonas aeruginosa UC 95 )PA), Escherichia coli UC 51 (EC) or Staphylococcus aureus UC 80 (SA). The assay trays were incubated overnight under aerobic condition to allow for the growth of the organisms. Zones of growth inhibition due to the action of the antibiotic were then measured to the nearest millimeter.

[6] = test system: Gram-positive and Gram-negative bacteria; assay: Dipped disk assay, overall antibacterial activity (Formula IB)
Protocol: The effectiveness of the subject compounds on some bacteria were obtained by performing a dipped disk assay. The antibacterial activity of the compounds is determined by the disk-diffusion method. Paper disks (12.7 mm) were loaded with 0.10 ml of drug solution prepared at a concentration of 1 and 0.1 mcg/ml; the disks were allowed to air dry. They were then applied to the surface of microorganism-seeded agar assay trays, which contained the bacterial strain Pseudomonas aeruginosa UC 95 )PA), Escherichia coli UC 51 (EC) or Staphylococcus aureus UC 80 (SA). The assay trays were incubated overnight under aerobic condition to allow for the growth of the organisms. Zones of growth inhibition due to the action of the antibiotic were then measured to the nearest millimeter.

[7] = test system: Pseudomonas aeruginosa UC 95 (PA); assay: Dipped disk (disk-diffusion) assay, disks loaded with 0.10 ml; conditions: Conc 0.1 mg/ml, 0.10 ml per disk
Protocol: as §3

[8] = test system: Staphylococcus aureus UC 80 (SA); assay: as above; conditions: 0.10 ml per disk
Protocol: as §3

[9] = test system: gram negative and positive; assay: Compound 10 compared to ciprofloxacin, overall activity; conditions: compared with ciprofloxacin

COC(=O)/C=C(\C(=O)OC)N1CCN(c2c(F)cc3c(=O)c(C(=O)O)cn(-c4ccc(F)cc4)c3c2F)CC1 [Compound 7]
zone of inhibition at 1 µg/mL [1]: 26 mm | zone of inhibition at 1 µg/mL [2]: 15 mm | zone of inhibition at 1 µg/mL [3]: 22 mm | zone of inhibition at 1 µg/mL [4]: 24 mm

2-[4-(1-Cyclopropyl-3-carboxy-6,8-difluoro-1,4-dihydro-4-oxo-7-quinolinyl)-1-piperazinyl]2-butenedioic acid, dimethyl ester [Compound 1]
Growth Inhibition zone, KP [1]: 31 millimeter | Growth Inhibition zone, PA [2]: 36 millimeter | Growth Inhibition Zone, SA [3]: 27 millimeter | Growth Inhibition Zone, EC [4]: 31 millimeter | Growth Inhibition Zone, EC ([5]; Conc 0.1 mg/ml): 30 mm | Growth Inhibition Zone, EC ([5]; Conc 1 mg/ml): 35 mm | gram negative and positive activity (in words) [6]: potent gram negative and positive activity as compared to the commercially available antibacterial Ciprofloxacin | Growth Inhibition zone, PA [7]: 35 mm | Growth Inhibition Zone, SA ([8]; Conc 0.1 mg/ml): 25 mm | Growth Inhibition Zone, SA ([8]; Conc 1 mg/ml): 28 mm

COC(=O)/C=C(\C(=O)OC)N1CCN(c2c(F)cc3c(=O)c(C(=O)O)cn(C4CCC4)c3c2F)CC1 [Compound 6, 2-[4-(3-carboxy-1-cyclobutyl-6,8-difluuoro-1,4-dihydro-4-oxo-7-quinolinyl)-1-piperazinyl]-2-butenedioic acid (E)-1,4-dimethyl ester]
zone of inhibition at 1 µg/mL [1]: 26 mm | zone of inhibition at 1 µg/mL [2]: 16 mm | zone of inhibition at 1 µg/mL [3]: 22 mm | zone of inhibition at 1 µg/mL [4]: 24 mm

COC(=O)/C=C(\C)NC1CCN(c2c(F)cc3c(=O)c(C(=O)O)cn(C4CC4)c3c2F)C1 (stereo not shown) [Compound 9, 2-[4-(3-carboxy-1-cyclopropyl-6,8-difluoro-1,4-dihydro-4-oxo-7-quinolinyl)-1-(3-aminopyrrolidinyl)]-3-butenoic acid-(E)-1-methyl ester]
zone of inhibition at 1 µg/mL [1]: 26 mm | zone of inhibition at 1 µg/mL [2]: 32 mm | zone of inhibition at 1 µg/mL [3]: 23 mm | zone of inhibition at 1 µg/mL [4]: 24 mm

COC(=O)C=C(C(=O)OC)N1CCN(c2cc3c(cc2F)c(=O)c(C(=O)O)cn3C2CC2)CC1 [Compound 3, 2-[4-(1-Cyclopropyl-3-carboxy-6-fluoro-1,4-dihydro-4-oxo-7-quinolinyl)-1-piperazinyl]2-butenedioic acid, dimethyl ester]
zone of inhibition at 0.1 µg/mL [1]: 29 mm | zone of inhibition at 0.1 µg/mL [2]: 36 mm | zone of inhibition at 0.1 µg/mL [3]: 25 mm | zone of inhibition at 0.1 µg/mL [4]: 29 mm

COC(=O)/C=C(/NC1CCN(c2c(F)cc3c(=O)c(C(=O)O)cn(C4CC4)c3c2F)C1)C(=O)OC (stereo not shown) [Compound 10, 2-[4-(3-carboxy-1-cyclopropyl-6,8-difluoro-1,4-dihydro-4-oxo-7-quinolinyl)-1-(3-aminopyrrolidinyl)]-2-butenedioic acid-(E)-1,4-dimethyl ester]
gram negative and positive activity (in words) [9]: gram negative and positive activity greatly increased over that of ciprofloxacin

COC(=O)/C=C(\C(=O)OC)N1CCN(c2c(F)c(N)c3c(=O)c(C(=O)O)cn(C4CC4)c3c2F)CC1 [Compound 5, 2-[4-(5-amino-3-carboxy-1-cyclopropyl-6,8-difluoro-1,4-dihydro-4-oxo-7-quinolinyl)-1-piperazinyl]-2-butenedioic acid, (E)-1,4-dimethyl ester]
zone of inhibition at 1 µg/mL [1]: 28 mm | zone of inhibition at 1 µg/mL [2]: 27 mm | zone of inhibition at 1 µg/mL [3]: 27 mm | zone of inhibition at 1 µg/mL [4]: 24 mm

2-[4-(1-Ethyl-3-carboxy-6-fluoro-1,4-dihydro-4-oxo-7-quinolinyl)-1-piperizinyl]2-butanedioic acid, dimethyl ester [Compound 2]
Growth Inhibition zone, KP [1]: 25 millimeter | Growth Inhibition zone, PA [2]: 25 millimeter | Growth Inhibition Zone, SA [3]: 21 millimeter | Growth Inhibition Zone, EC [4]: 23 millimeter | Growth Inhibition Zone, EC ([5]; Conc 0.1 mg/ml): 30 mm | Growth Inhibition Zone, EC ([5]; Conc 1 mg/ml): 30 mm | gram negative and positive activity (in words) [6]: potent gram negative and positive activity as compared to the commercially available antibacterial Ciprofloxacin | Growth Inhibition zone, PA [7]: 35 mm | Growth Inhibition Zone, SA ([8]; Conc 0.1 mg/ml): 25 mm | Growth Inhibition Zone, SA ([8]; Conc 1 mg/ml): 28 mm

COC(=O)/C=C(/NC1CCN(c2c(F)cc3c(=O)c(C(=O)O)cn(-c4ccc(F)cc4F)c3c2F)C1)C(=O)OC (stereo not shown) [Compound 8, 2-[4-(3-carboxy-1-benzene(2,4-difluoro)-1,4-dihydro-4-oxo-7-quinolinyl)-1-(3-aminopyrrolidinyl)]-2-butenedioic acid, (E)-1,4-dimethyl ester]
zone of inhibition at 1 µg/mL [1]: 34 mm | zone of inhibition at 1 µg/mL [2]: 28 mm | zone of inhibition at 1 µg/mL [3]: 32 mm | zone of inhibition at 1 µg/mL [4]: 30 mm

COC(=O)C/C=C(\C(=O)OC)N1CCN(c2c(F)cc3c(=O)c(C(=O)O)cn(C4CC4)c3c2F)CC1 [Compound 4, 2-[4-(3-carboxy-1-cyclopropyl-6,8-difluoro-1,4-dihydro-4-oxo-4-oxo-7-quinolinyl)-1-piperazineyl]-2-pentenedioic acid-(E)-1,5-dimethyl ester]
zone of inhibition at 0.1 µg/mL [1]: 33 mm | zone of inhibition at 0.1 µg/mL [2]: 33 mm | zone of inhibition at 0.1 µg/mL [3]: 28 mm | zone of inhibition at 0.1 µg/mL [4]: 27 mm
